Test results as given in the supplement of paper PMC10307832.

Tests used:
Test in all cases: relative viability (nuclei count vs DMSO), 5 days (fraction); higher = more cells survive
[1] = compound: C1=CC=C(C(=C1)C2=CC=C(C=C2)C3=CSC4=C3C(=C(C(=O)N4)C#N)O)O
Method in brief: (§1)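 Following overnight incubation at 37 °C, lung cancer cell lines in 1536-well plates were pinned with five library-drug doses (not always all listed) in √10 steps on vehicle-anchored plates. The cells then spent 5 days without medium change before a combined fix, permeabilisation and Hoechst stain, 4× imaging and MetaXpress nuclear counts. Viability is the treated-to-vehicle ratio of nuclei, taken as the median across plates. Only plates with control CV below 25% and at least one doubling passed.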

TGX 221 = compound: CC1=CN2C(=O)C=C(N=C2C(=C1)C(C)NC3=CC=CC=C3)N4CCOCC4 [TGX 221]
Method in brief: as §1

Ricolinostat = compound: O=C(CCCCCCNC(=O)c1cnc(N(c2ccccc2)c2ccccc2)nc1)NO [Ricolinostat]
Method in brief: as §1

[2] = compound: C1=CC=C(C(=C1)C2=CC=C(C=C2)C3=CSC4=C3C(=C(C(=O)N4)C#N)O)O + Cc1nc(NC(=O)N2CCC[C@H]2C(N)=O)sc1-c1ccnc(C(C)(C)C(F)(F)F)c1 [Alpelisib] (partner 2 µM)
Method in brief: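 Lung cancer cell lines, seeded in 1536-well plates, were treated the following day by pin tool with a single drug or with five library-drug doses (not always all listed) in √10 steps on top of a fixed anchor-drug dose. Cells were fixed and nuclei stained in one step after 5 days, and nuclei were counted. Relative viability is the nuclei count for treated wells divided by that for vehicle wells, reported as medians of duplicate plates.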

| Cell Line | relative viability ([1]; 0.08 µM) | relative viability ([1]; 0.253 µM) | relative viability ([1]; 0.8 µM) | relative viability ([1]; 2.53 µM) | relative viability ([1]; 8 µM) | relative viability (TGX 221; 0.08 µM) | relative viability (TGX 221; 0.253 µM) | relative viability (TGX 221; 0.8 µM) | relative viability (TGX 221; 2.53 µM) | relative viability (TGX 221; 8 µM) | relative viability (Ricolinostat; 0.08 µM) | relative viability (Ricolinostat; 0.253 µM) | relative viability (Ricolinostat; 0.8 µM) | relative viability (Ricolinostat; 2.53 µM) | relative viability ([2]; first compound 0.08 µM) | relative viability ([2]; first compound 0.253 µM) | relative viability ([2]; first compound 0.8 µM) | relative viability ([2]; first compound 2.53 µM) | relative viability ([2]; first compound 8 µM) |
| --- | --- | --- | --- | --- | --- | --- | --- | --- | --- | --- | --- | --- | --- | --- | --- | --- | --- | --- | --- |
| NCI-H23 | 0.948 | 1.03 | 1.07 | 0.978 | 0.805 | 0.993 | 0.861 | 0.909 | 0.825 | 0.932 | 0.779 | 1.03 | 0.851 | 0.895 | 0.652 | 0.695 | 0.833 | 0.719 | 0.421 |
| NCI-H322M | 0.866 | 0.918 | 0.95 | 0.949 | 0.96 | 0.876 | 0.875 | 0.904 | 0.801 | 0.841 |  | 0.964 | 0.958 | 0.923 | 0.814 | 0.901 | 0.958 | 0.835 | 0.703 |
| NCI-H358 | 0.905 | 0.937 | 1.04 | 0.907 | 0.716 | 0.914 | 0.88 | 0.914 | 1.02 | 0.756 | 0.726 | 0.914 | 1.05 | 1.04 | 0.708 | 0.862 | 0.788 | 0.973 | 0.763 |
| NCI-H441 | 0.928 | 1.2 | 1.22 | 1.12 | 0.63 | 0.952 | 0.955 | 1.04 | 1.08 | 1.06 | 0.793 | 0.972 | 1.01 | 0.892 |  | 0.773 |  | 0.75 | 0.816 |
| NCI-H460 | 0.963 | 1.05 | 1.02 | 1.06 | 0.742 | 0.968 | 0.96 | 0.977 | 0.945 | 0.925 | 0.95 | 0.968 | 0.96 | 0.989 |  | 0.67 | 0.596 | 0.588 | 0.387 |
| NCI-H520 | 0.808 | 0.901 | 1.07 | 1.04 | 0.777 | 0.809 | 0.797 | 0.741 | 0.692 | 0.656 |  | 1.05 | 1.01 | 0.861 | 0.602 | 0.767 | 1.03 | 0.87 | 0.861 |
| NCI-H596 | 0.777 | 1.22 | 1.05 | 0.98 | 0.841 | 1.03 | 0.953 | 1.02 | 0.94 | 0.997 | 0.999 | 1.1 | 0.987 | 0.851 | 0.397 | 0.541 | 0.489 | 0.497 | 0.447 |
| NCI-H647 | 0.825 | 1 | 0.903 | 0.892 | 0.707 | 0.856 | 0.809 | 0.889 | 0.738 | 0.621 | 0.745 | 0.903 | 0.867 | 0.712 | 0.559 | 1 | 1.11 | 1.19 | 1.34 |
| NCI-H650 | 0.85 | 1.04 | 0.835 | 1.01 | 0.877 | 0.873 | 0.964 | 0.853 | 0.867 | 0.889 | 0.769 | 0.969 | 0.874 | 0.696 | 1.1 | 1.36 | 0.961 | 1.11 | 1.22 |
| NCI-H661 | 1.11 | 1.03 | 1.03 | 0.97 | 0.834 | 1.02 | 1.02 | 0.971 | 0.999 | 0.846 | 0.836 | 0.981 | 1.02 | 0.803 | 0.59 | 0.583 | 0.538 | 0.554 | 0.549 |
| NCI-H727 | 1.02 | 0.92 | 0.987 | 0.808 | 0.842 | 0.885 | 0.887 | 0.948 | 0.898 | 0.97 | 0.763 | 1.11 | 1 | 0.81 | 0.59 | 0.642 | 0.539 | 0.688 | 0.655 |
| NCI-H838 | 0.893 | 1.06 | 0.98 | 0.882 | 0.824 | 0.946 | 0.833 | 0.886 | 0.83 | 0.761 | 0.822 | 1.05 | 0.981 | 0.95 | 0.66 | 0.97 | 1.03 | 0.924 | 0.989 |
| NCI-H1299 | 1.09 | 1.07 | 1.01 | 1.06 | 0.897 | 0.98 | 1.01 | 1.01 | 1.06 | 0.993 | 0.997 | 0.983 | 0.982 | 0.954 | 1.01 | 1.08 | 1.14 | 1.08 | 0.699 |
| NCI-H1355 | 0.839 | 1.13 | 1.02 | 1.02 | 0.955 | 0.979 | 0.948 | 0.972 | 0.864 | 0.902 | 0.855 | 0.97 | 0.948 | 0.893 | 0.927 | 1 | 0.899 | 0.829 | 0.663 |
| NCI-H1395 |  | 0.925 | 0.837 | 0.944 | 0.888 | 0.787 | 0.801 | 0.838 | 0.664 | 0.703 |  | 0.922 | 0.746 | 0.833 |  | 1.17 | 1.16 | 1.09 | 0.967 |
| NCI-H1437 | 0.935 | 1.11 | 0.994 | 1.14 | 0.891 | 1.02 | 0.942 | 0.998 | 0.983 | 0.929 | 0.951 | 0.993 | 0.969 | 0.763 | 0.713 | 1.16 | 0.994 | 1.09 | 0.883 |
